These results are taken from ChEMBL document CHEMBL1133237, “Enhanced binding of aminoglycoside dimers to a "dimerized" A-site 16S rRNA construct” (Bioorg Med Chem Lett, 2000).

The term Kd denotes the concentration at which binding is half-saturated. Read a low Kd as a tighter complex.

For experiment [1], the target named is Nucleic Acid. As to the kind of experiment: Dissociation constant towards 16S rRNA construct B. Format: nucleic-acid assay.
The target of experiment [2] is Nucleic Acid. As to the kind of experiment: Dissociation constant towards 16S rRNA construct A. The experiment is classed as nucleic-acid assay.

Turning to `NCC1O[C@H](O[C@H]2[C@@H](O)[C@H](O[C@H]3[C@H](O)[C@@H](N)C[C@@H](N)[C@@H]3O[C@H]3O[C@H](CN)[C@@H](O)[C@H](O)[C@H]3N)O[C@@H]2CSCCOCCSSCCOCCSC[C@H]2O[C@@H](O[C@H]3[C@H](O)[C@@H](N)C[C@@H](N)[C@@H]3O[C@H]3O[C@H](CN)[C@@H](O)[C@H](O)[C@H]3N)[C@H](O)[C@@H]2O[C@@H]2OC(CN)[C@H](O)[C@@H](O)[C@@H]2N)[C@H](N)[C@@H](O)[C@@H]1O` (stereo not given in full), the Kd turned out to be 20 nM in experiment [1] and 320 nM in experiment [2].
On to `NC[C@@H]1O[C@H](O[C@H]2[C@@H](O)[C@H](O[C@@H]3[C@@H](O)[C@H](N)C[C@H](N)[C@H]3O[C@H]3O[C@H](CN)[C@@H](O)[C@H](O)[C@H]3N)O[C@@H]2CO)[C@H](N)[C@@H](O)[C@@H]1O` [FRAMYCETIN], for which the Kd in experiment [1] worked out at 380 nM; in experiment [2] it was 440 nM.
The like results for `NCC1O[C@H](O[C@H]2[C@@H](O)[C@H](O[C@H]3[C@H](O)[C@@H](N)C[C@@H](N)[C@@H]3O[C@H]3O[C@H](CN)[C@@H](O)[C@H](O)[C@H]3N)O[C@@H]2CSCCOCCSSCCOCCSC[C@H]2O[C@H](O[C@@H]3[C@@H](O)[C@H](O[C@H]4O[C@H](CN)[C@@H](O)C[C@H]4N)[C@@H](N)C[C@H]3N)[C@H](O)[C@@H](N)[C@@H]2O)[C@H](N)[C@@H](O)[C@@H]1O` (stereo not given in full) were, in that order, 290 nM and 410 nM.
In the case of `NC[C@H]1O[C@H](O[C@H]2[C@H](O)[C@@H](O[C@H]3O[C@H](CO)[C@@H](O)[C@H](N)[C@H]3O)[C@H](N)C[C@@H]2N)[C@H](N)C[C@@H]1O` [TOBRAMYCIN], the dissociation constant (Kd) was determined as 1680 nM in experiment [1] and 2110 nM in experiment [2].
The like results for `NC[C@H]1O[C@H](O[C@H]2[C@H](O)[C@@H](O[C@H]3O[C@H](CSCCOCCSSCCOCCSC[C@H]4O[C@H](O[C@@H]5[C@@H](O)[C@H](O[C@H]6O[C@H](CN)[C@@H](O)C[C@H]6N)[C@@H](N)C[C@H]5N)[C@H](O)[C@@H](N)[C@@H]4O)[C@@H](O)[C@H](N)[C@H]3O)[C@H](N)C[C@@H]2N)[C@H](N)C[C@@H]1O` [Tobramycin-Tobramycin] were, in that order, 1810 nM and 1780 nM.
